Experiment [1] deals with iBMK cells. Nature of the experiment: MTT assay, viability of iBMK cells. The format is cell-based, mouse. Conditions: for sensitivity to TNF-α-induced cell death (MTT assay): TNF-α/CHX (0.05 μg/ml). As to the method:
3-(4,5-dimethylthiazol-2-yl)-2,5-diphenyltetrazolium bromide (MTT) assay to measure the viability of iBMK cells treated with paclitaxel, CHX, or both mouse TNF-α and CHX was performed as previously described (Ioffe, M. L., et al., Prostate 61: 243-247. (2004)).
To test if apoptosis mediated by general translation inhibition was dependent on specific BH3-only proteins, the apoptotic response of puma^−/−, bim^−/−, noxa^−/−, nbk/bik^−/− iBMK cells to translation inhibition was tested with CHX. In addition to W2, D3, X2 or K1 cells, puma^−/−, bim^−/−, noxa^−/− or nbk/bik^−/− cells were treated with increasing concentration of CHX (0.05, 0.5, 1.0, 5.0 and 10.0 μg/ml) for 24 hours to induce translation inhibition and viability was assessed. […] In contrast, when D3, K1 (FIG. 6B) and nbk/bik^−/− (FIG. 6C) cells were treated with CHX, cell viability remained high. […] In contrast, D3 cells were resistant to cell death induced by TNF-α and paclitaxel (FIGS. 6D and E). […] Furthermore, NBK/BIK was not required for TNF-α-mediated apoptosis (FIG. 6D) which signals through tBID (Li, H., et al., Cell 94: 491-501 (1998); Luo, X., et al., Cell 94: 481-490 (1998)), nor was NBK/BIK required for apoptosis induced by taxanes (FIG. 6E) which is dependent on BIM (Bouillet, P., et al., Science 286: 1735-1738 (1999); Tan, T. T., et al., Cancer Cell 7: 227-238. (2005)). These findings support the role for specific BH3-only proteins controlling the response to discrete apoptotic stimuli.

A further experiment concerns caspase-3, PARP. Description: Western blot of active caspase-3 and PARP in T-Rex-293 lysates. Type of experiment: cell-based, human. As for the experimental part: Western blot analysis and immunofluorescence were performed as previously described (Perez, D., and White, E. J. Cell Biol. 141: 1255-1266 (1998); Perez, D., and White, E. Mol. Cell 6: 53-63 (2000)). The term “Western blot” refers to a method for identifying proteins in a complex mixture; proteins are separated electrophoretically in a gel medium; transferred from the gel to a protein binding sheet or membrane; and the sheet or membrane containing the separated proteins exposed to specific antibodies which bind to, locate, and enable visualization of protein(s) of interest. T-Rex-293 (mazF/pcDNA3) and T-Rex-293 (mazF/mazE) cells were harvested at 0, 24, 48 and 72 hr post-treatment with tetracycline or staurosporine by scraping and centrifugation. All cell pellets were lysed in 2× Laemmli buffer. Cell lysates were subjected to electrophoresis on a 15% SDS-PAGE gel and then transferred onto an Immobilon-P membrane (Millipore, Bedford, Mass.). The blot was incubated with following antibody: anti-active caspase-3 rabbit polyclonal antibody (Cell Signaling Technology, Beverly, Mass.), anti-BAX, anti-BAK rabbit polyclonal antibody (NT) (Upstate Biotechnology Inc., Lake Placid, N.Y.), anti-BID goat polyclonal antibody (R&D Systems, Inc, Minneapolis, Minn.), anti-Bim rabbit polyclonal antibody (Alexis Biochemical, San Diego, Calif.), anti-BCL-2 hamster monoclonal antibody (PharMingen, San Diego, Calif.), anti-BCL-XL mouse monoclonal antibody (Trevigen, Gaithersburg, Md.), anti-MCL-1 rabbit polyclonal antibody (Stressgen Biotechnologies, Victoria, British Columbia, Canada), anti-PARP mouse monoclonal antibody (PharMingen, San Diego, Calif.), anti-PUMA rabbit polyclonal antibody (Nelson, D. A., et al., Genes Dev. 18: 2095-2107 (2004)), anti-E1A monoclonal antibody; anti-actin monoclonal antibody (Oncogene Research Products); and anti-Xpress monoclonal antibody (Invitrogen). An antibody directed to human NBK/BIK was generated by expression of a GST-tagged human NBK/BIK fusion protein encoding an N-terminal 78-amino acid region in bacteria and immunization of rabbits (Cocalico). Western Blots were developed with horseradish peroxidase-conjugated secondary antibodies using the ECL system (Amersham-Pharmacia Biotech, Piscataway, N.J.).

The test system of experiment [2] is iBMK cells. The conditions noted are these: cited from earlier work.
Experiment [3] relates to T-Rex-293 cells. Description: 35S-methionine metabolic labeling (protein synthesis). Type of experiment: cell-based, human. Conditions: T-Rex-293 (mazF/mazE), Tet-treated. As for the experimental part:
T-Rex-293 (mazF/pcDNA3) and T-Rex-293 (mazF/mazE) cells were incubated for 0, 24 and 48 hr in tetracycline-containing complete DMEM followed by incubation for 1 hr in fresh methionine-free DMEM containing 10 μCi/ml ^35S-methionine. The cells then were washed with PBS twice and lysed in 2× Laemmli buffer. The cell lysate was subjected to SDS-PAGE followed by autoradiography and coomassie blue stain. Signal intensity was measured by Phosphoimager STORM 860 (Molecular Dynamics, Sunnyvale, Calif.).

The test system of experiment [4] is T-Rex-293 cells. Nature of the experiment: trypan blue exclusion viability. The format is cell-based, human. Conditions: T-Rex-293 (mazF/mazE), Tet-treated. As to the method:
The viability of T-Rex-293 cells was determined by trypan blue exclusion as previously described (Degenhardt, K., et al., J. Biol. Chem. 277: 14127-14134 (2002)). T-Rex-293 (mazF/pcDNA3) and T-Rex-293 (mazF/mazE) cells were cultured for 24 hr before tetracycline treatment and then incubated for 0, 24, 48 and 72 hr at 37° C. in the presence or absence of 10 μg/ml tetracycline. After treatment, cells were collected by centrifugation of the supernatant plus adherent cells, which were harvested by trypsinization. Cells were resuspended in 500 μl of fresh medium containing 0.1% trypan blue solution (Sigma, St. Louis, Mo.) and then counted on a hemocytometer to assess the number of dead blue cells and the total number of cells counted. As a control for apoptotic cell death, T-Rex-293 (mazF/mazE) cells were treated with 1 μM staurosporine (Sigma, St. Louis, Mo.) for same time periods concurrently with tetracycline treatment.

Experiment [5] concerns T-Rex-293 cells. Description: FACS analysis of propidium iodide labeling (sub-G1 peak). The format is cell-based, human. Conditions: T-Rex-293 (mazF/mazE), MazE co-expressed with MazF, 72 hours of induction. As for the experimental part: T-Rex-293 (mazF/pcDNA3) cells and T-Rex-293 (mazF/mazE) cells treated with tetracycline for 0, 24, 48 and 72 hr were harvested by trypsinization, pelleted by centrifugation and resuspended in PBS. The cells were fixed with ice-cold 70% ethanol for 30 min and stained with propidium iodide (10 μg/ml) and RNase A (100 μg/ml) overnight. The cells were analyzed on a Becton Dickinson FACSCalibur system (San Jose, Calif.).

Experiment [6] deals with human GAPDH and β-actin mRNA. Description: Northern blot analysis of cellular mRNA in T-Rex-293 cells. Conditions: co-expression of MazE with MazF, T-Rex-293 (mazF/mazE), throughout time course of induction. Type of experiment: cell-based. As to the method: Northern blot analysis and real-time PCR (RT-PCR) was preformed as previously described (Zhang, Y., et al., Mol. Cell 12: 913-923 (2003); Cuconati, A., et al., Genes Dev. 17: 2922-2932 (2003)). Total RNA from tetracycline-treated (0, 24, 48 and 72 hr) or untreated (0, 24, 48 and 72 hr) T-Rex-293 (mazF/pcDNA3) and T-Rex-293 (mazF/mazE) cells for were isolated through the use of Trizol Reagent (Gibco, Carlsbad, Calif.). For Northern blot analysis, 10 μg of total RNA from each condition was subjected to formaldehyde-agarose gel electrophoresis followed by transfer onto GeneScreen Plus membrane (NEN Life Science Products, Boston, Mass.). The blot was hybridized with ^32P-labeled human GAPDH or β-actin cDNA. One hundred ng of total RNA was subjected to real time RT-PCR with the Taqman EZ-RT PCR kit (PE Applied Biosystems, Lincoln Centre Drive Foster City, Calif.) using recommended conditions provided by the vendor. Primers to analyze the level of human GAPDH mRNA were obtained from Applied Biosystems, and a probe for GAPDH was supplied with 5′ linkage to the reporter dye 2, 7-dimethoxy-4, 5-dichloro-6-carboxy-fluoroecein (JOE), and 3′ linkage to the quencher 6-carboxy-tetramethylrhodamine (TAMURA). β-actin primer sequences were 5′-[…]-3′ and 5′-[…]-3′. β-actin probe sequence was FAM-5′-[…] TTCC-3′-TAMURA. Reactions were carried out in triplicate and the relative amount of human GAPDH and β-actin mRNA was calculated from the difference in fluorescence signal in the 24-, 48- and 72-hr samples compared with the corresponding 0 hr sample.
To assess cellular mRNA levels, total RNA was isolated from whole cells of Tet-treated or -untreated T-Rex-293 cells and subjected to Northern blot analysis using human GAPDH and β-actin cDNA probes. […] Labeled single-stranded DNA fragments complementary to the specific mRNA being sought then are hybridized to the bound mRNA and the label detected by suitable means. […]

For experiment [7], the system named is T-Rex-293 cells. Description: phase contrast morphology / cytopathic effect. The format is cell-based, human. Conditions: MazE co-expressed with MazF, T-Rex-293.
Experiment [8] deals with human GAPDH and β-actin mRNA. Nature of the experiment: real-time RT-PCR quantification of mRNA levels in T-Rex-293 cells. Conditions: cells expressing both MazE and MazF. Type of experiment: cell-based. As to the method:
Northern blot analysis and real-time PCR (RT-PCR) was preformed as previously described (Zhang, Y., et al., Mol. Cell 12: 913-923 (2003); Cuconati, A., et al., Genes Dev. 17: 2922-2932 (2003)). Total RNA from tetracycline-treated (0, 24, 48 and 72 hr) or untreated (0, 24, 48 and 72 hr) T-Rex-293 (mazF/pcDNA3) and T-Rex-293 (mazF/mazE) cells for were isolated through the use of Trizol Reagent (Gibco, Carlsbad, Calif.). For Northern blot analysis, 10 μg of total RNA from each condition was subjected to formaldehyde-agarose gel electrophoresis followed by transfer onto GeneScreen Plus membrane (NEN Life Science Products, Boston, Mass.). The blot was hybridized with ^32P-labeled human GAPDH or β-actin cDNA. One hundred ng of total RNA was subjected to real time RT-PCR with the Taqman EZ-RT PCR kit (PE Applied Biosystems, Lincoln Centre Drive Foster City, Calif.) using recommended conditions provided by the vendor. […] Reactions were carried out in triplicate and the relative amount of human GAPDH and β-actin mRNA was calculated from the difference in fluorescence signal in the 24-, 48- and 72-hr samples compared with the corresponding 0 hr sample.

In experiment [9] the test system is iBMK cells. Nature of the experiment: β-galactosidase assay, viability of iBMK cells co-expressing LacZ. The format is cell-based, mouse. Conditions: MazE transiently co-expressed with MazF in W2 and X2 cells. As to the method: β-galactosidase assays to determine the viability of iBMK cells co-expressing LacZ and MazF were performed as previously described (Han, J., Sabbatini, P., and White, E. Mol. Cell. Biol. 16: 5857-5864 (1996)). W2, D3, X2 and K1 co-transfected with pcDNA6/His/LacZ and pcDNA4/TO/mazF or pcDNA3 for 48 hr were fixed in 1% glutaraldehyde and then stained with 0.2% X-gal solution at 37° C. for 24 hr. β-Galactosidase positive blue cells and the total number of cells (approximately 200 cells) were independently counted on a 6-cm diameter dish.

Setting [10] is: W2 and three independent nbk/bik−/− iBMK cell lines.

Turning to `C[C@@H]1C[C@@H]([C@H](O)CC2CC(=O)NC(=O)C2)C(=O)[C@@H](C)C1` [CHX, cycloheximide], the “cell viability (MTT assay)” value in the experiment on iBMK cells [1] (D3, K1 and nbk/bik−/− cells, CHX 0.05-10.0 μg/ml for 24 hours) is on record as “remained high”. Also, the “survival (MTT assay)” value in the experiment on iBMK cells [1] (W2, X2, puma−/−, bim−/− and noxa−/− cells, CHX 0.05-10.0 μg/ml for 24 hours) is “decreased in a dose-dependent manner”.
For `CC(=O)O[C@H]1C(=O)[C@@]2(C)[C@H]([C@H](OC(=O)c3ccccc3)[C@]3(O)C[C@H](OC(=O)[C@H](O)[C@@H](NC(=O)c4ccccc4)c4ccccc4)C(C)=C1C3(C)C)[C@]1(OC(C)=O)CO[C@@H]1C[C@@H]2O` [paclitaxel], the entries for the “sensitivity to paclitaxel-induced cell death (MTT assay)” value in the experiment with iBMK cells [1] (D3 cells) and in the experiment on iBMK cells [1] (setting [10]) were “resistant” and “clearly sensitive”, respectively.
Consider `CN[C@@H]1C[C@H]2O[C@@](C)([C@@H]1OC)n1c3ccccc3c3c4c(c5c6ccccc6n2c5c31)C(=O)NC4` [staurosporine, reference compound], for which, in the experiment with caspase-3, PARP (extracts from T-Rex-293 (mazF/mazE) cells treated with 1 μM staurosporine), the “active caspase-3 (Western blot)” value was “detected”.
As for TNF-α, the “sensitivity to TNF-α-induced cell death (MTT assay)” value is “resistant” with iBMK cells [1] (D3 cells) and “clearly sensitive” with iBMK cells [1] (setting [10]). For the same molecule, the TNF-α-induced apoptosis result in the experiment with iBMK cells [2] (D3 iBMK cells) was “resistant”. Moreover, the apoptosis induction result with iBMK cells [2] (W2, X2, and K1 iBMK cells) is on record as “induces apoptosis”.

B1: MazE: labile E. coli antitoxin that antagonizes the endoribonuclease activity of MazF; expressed from pcDNA3/mazE together with MazF (protein, UniProt P0AE72 1-82, looked up)
Antitoxin MazE: MIHSSVKRWGNSPAVRIPATLMQALNLNIDDEVKIDLVDGKLIIEPVRKEPVFTLAELVNDITPENLHENIDWGEPKDKEVW
With B1, in the experiment on T-Rex-293 cells [3], the “effect of MazE co-expression on MazF inhibition of protein synthesis (35S-methionine incorporation)” value is listed as “clearly prevented the inhibitory effect of MazF”. Besides, the “effect of co-expression of MazE with MazF on viability (trypan blue exclusion)” value in the experiment on T-Rex-293 cells [4] was “conferred resistance to MazF-mediated killing”. This molecule registered a sub-G1 peak in the experiment on T-Rex-293 cells [5] of 11.4%. Moreover, in experiment [6], the “levels of both GAPDH and β-actin mRNAs (Northern blot)” value was “maintained”. Further, the “activation of caspase-3 (Western blot)” value with caspase-3, PARP (co-expression of MazE with MazF, Tet-treated T-Rex-293 (mazF/mazE)) is recorded as “inhibited”. The “cleaved PARP (Western blot)” value with caspase-3, PARP (extracts of cells expressing both MazE and MazF) is reported as “not present”. For the same molecule, the “cell number and morphology” value in the experiment on T-Rex-293 cells [7] is “maintained”. The “levels of both GAPDH and β-actin mRNAs (real-time RT-PCR)” value in experiment [8] is “constant levels”. The “effect of MazE on MazF-induced cell death (β-galactosidase assay)” value in the experiment on iBMK cells [9] was “significantly repressed MazF-induced cell death”.

(Values after patent publication US20090047742A1 (priority 2005, published 2009).)
